Data published in ChEMBL document CHEMBL5543111, “Uncovering PROTAC Sensitivity and Efficacy by Multidimensional Proteome Profiling: A Case for STAT3” (J Med Chem, 2024).
The source made the active and inactive calls. No cut-off for these calls is given here.

Assays:
[1] = molecular target: Protein cereblon/Bromodomain-containing protein 3 (Homo sapiens) (UniProt Q15059+Q96SW2); assay: PROTAC activity at CRBN/BRD3 in human A549 cells assessed as degradation of BRD3 protein level at 100 nM incubated for 24 hrs; type: cell-based
Sequence of Protein cereblon/Bromodomain-containing protein 3 (Homo sapiens) (Q15059 2-726 limits assumed): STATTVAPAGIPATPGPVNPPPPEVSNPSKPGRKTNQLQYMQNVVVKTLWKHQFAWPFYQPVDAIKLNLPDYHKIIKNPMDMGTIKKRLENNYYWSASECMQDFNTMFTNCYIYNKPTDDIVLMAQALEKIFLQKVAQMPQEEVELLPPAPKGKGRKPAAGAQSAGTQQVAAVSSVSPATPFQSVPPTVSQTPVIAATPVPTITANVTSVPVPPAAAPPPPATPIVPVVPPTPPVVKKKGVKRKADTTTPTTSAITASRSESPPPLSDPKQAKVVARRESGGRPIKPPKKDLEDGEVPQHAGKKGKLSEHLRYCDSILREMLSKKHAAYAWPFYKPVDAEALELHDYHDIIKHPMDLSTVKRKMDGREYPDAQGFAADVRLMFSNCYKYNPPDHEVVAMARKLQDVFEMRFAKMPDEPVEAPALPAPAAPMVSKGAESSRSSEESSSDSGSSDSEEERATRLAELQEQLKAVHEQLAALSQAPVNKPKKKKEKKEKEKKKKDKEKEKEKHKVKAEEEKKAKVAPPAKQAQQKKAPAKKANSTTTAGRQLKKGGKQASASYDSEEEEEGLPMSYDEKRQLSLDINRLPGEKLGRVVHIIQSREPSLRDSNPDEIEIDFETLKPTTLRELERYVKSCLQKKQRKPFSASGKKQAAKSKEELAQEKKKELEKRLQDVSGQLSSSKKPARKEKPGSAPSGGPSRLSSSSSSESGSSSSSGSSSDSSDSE
Sequence of Protein cereblon/Bromodomain-containing protein 3 (Homo sapiens) (Q96SW2 whole entry partner): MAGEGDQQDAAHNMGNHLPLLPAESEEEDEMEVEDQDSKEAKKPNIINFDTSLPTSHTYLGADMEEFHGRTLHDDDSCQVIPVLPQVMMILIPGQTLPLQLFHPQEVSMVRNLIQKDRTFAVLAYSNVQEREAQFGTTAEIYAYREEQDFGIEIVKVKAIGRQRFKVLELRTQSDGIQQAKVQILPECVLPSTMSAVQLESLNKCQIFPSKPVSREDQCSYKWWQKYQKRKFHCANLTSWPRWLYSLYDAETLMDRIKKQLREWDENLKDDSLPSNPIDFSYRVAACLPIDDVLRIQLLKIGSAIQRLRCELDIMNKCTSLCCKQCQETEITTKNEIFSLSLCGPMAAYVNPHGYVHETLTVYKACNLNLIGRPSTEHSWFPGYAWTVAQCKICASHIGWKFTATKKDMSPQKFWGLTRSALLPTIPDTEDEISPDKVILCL

[2] = molecular target: Protein cereblon/Bromodomain-containing protein 2 (Homo sapiens) (UniProt P25440+Q96SW2); assay: PROTAC activity at CRBN/BRD2 in human A549 cells assessed as degradation of BRD2 protein level at 100 nM incubated for 24 hrs; type: cell-based
Sequence of Protein cereblon/Bromodomain-containing protein 2 (Homo sapiens) (P25440 whole entry, looked up): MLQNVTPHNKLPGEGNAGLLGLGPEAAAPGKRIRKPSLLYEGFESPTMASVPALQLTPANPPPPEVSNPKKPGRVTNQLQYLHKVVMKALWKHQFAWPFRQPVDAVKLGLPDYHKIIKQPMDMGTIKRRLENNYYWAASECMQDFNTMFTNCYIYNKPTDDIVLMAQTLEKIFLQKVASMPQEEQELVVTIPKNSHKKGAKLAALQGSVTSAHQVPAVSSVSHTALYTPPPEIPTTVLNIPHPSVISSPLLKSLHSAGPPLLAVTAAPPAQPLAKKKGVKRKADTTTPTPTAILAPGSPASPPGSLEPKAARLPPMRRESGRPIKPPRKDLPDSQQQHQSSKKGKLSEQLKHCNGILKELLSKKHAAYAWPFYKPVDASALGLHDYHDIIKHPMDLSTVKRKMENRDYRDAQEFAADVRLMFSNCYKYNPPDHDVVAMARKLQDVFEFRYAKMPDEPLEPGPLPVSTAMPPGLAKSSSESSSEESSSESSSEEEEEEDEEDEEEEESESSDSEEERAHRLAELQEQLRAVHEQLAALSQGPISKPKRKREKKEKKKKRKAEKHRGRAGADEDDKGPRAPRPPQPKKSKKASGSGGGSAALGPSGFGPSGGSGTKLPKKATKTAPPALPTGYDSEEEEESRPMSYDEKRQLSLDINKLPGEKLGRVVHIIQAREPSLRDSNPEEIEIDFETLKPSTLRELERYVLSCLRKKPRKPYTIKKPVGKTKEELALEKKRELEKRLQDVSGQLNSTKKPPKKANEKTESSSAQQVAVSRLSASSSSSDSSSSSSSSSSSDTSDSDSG
Sequence of Protein cereblon/Bromodomain-containing protein 2 (Homo sapiens) (Q96SW2 whole entry, looked up): as the sequence (Q96SW2 whole entry partner) above

A549 [3] = assay: Upregulation of p53 protein expression in human A549 cells at 10 to 100 nM; type: functional, cell-based; details: dose 10-100 nM, time 3-24 hrs, TDE = time-dependent effect
A549 [4] = assay: Upregulation of p21 protein expression in human A549 cells at 100 nM measured after 24 hrs; type: functional, cell-based
[5] = molecular target: Protein cereblon/Bromodomain-containing protein 4 (Homo sapiens) (UniProt O60885+Q96SW2); assay: PROTAC activity at CRBN/BRD4 in human A549 cells assessed as degradation of BRD4 protein level at 100 nM incubated for 24 hrs; type: cell-based
Sequence of Protein cereblon/Bromodomain-containing protein 4 (Homo sapiens) (Q96SW2 whole entry, looked up, other chains not shown): as the sequence (Q96SW2 whole entry partner) above

A549 [6] = assay: Upregulation of p53 protein expression in human A549 cells measured after 3 to 24 hrs; type: functional, cell-based; details: dose 10-100 nM, time 3-24 hrs

- Activity [1]: Active
- Activity [2]: Active
- Activity [5]: Active
Structure (SMILES): CCn1nc(C2CC2)cc1Nc1nc(C(=O)NCCCCCc2cccc3c2CN(C2CCC(=O)NC2=O)C3=O)nc2[nH]c3cc(-c4c(C)noc4C)c(OC)cc3c12 (stereo unspecified)
- Activity (A549 [3]): Tde
- Activity (A549 [4]): Active
- Activity (A549 [6]): Dose-Dependent Effect
